In ChEMBL document CHEMBL4483862, “Open-source discovery of chemical leads for next-generation chemoprotective antimalarials” (2018):

System: Plasmodium berghei
Test: Luciferase/luciferin-expressing antifolate-resistant parasites were used to infect a culture of HepG2 cells that were pre-incubated with compounds. Infected hepatocytes emit light due to the luciferase reaction. Assay results are presented as the percent inhibition of light emission compared to control. […]
Assay type: functional
Conditions: sporozoite; for IC90: read-out: LUCIFERASE INFECTION ASSAY - IC90
[1] = read-out: LUCIFERASE INFECTION ASSAY - IC50

| Compound | IC90 | IC50 [1] | further results |
| --- | --- | --- | --- |
| O=C1C(=Nc2ccc(O)cc2)C=C(NS(=O)(=O)c2cccs2)c2ccccc21 | 3.54 µM | – | IC50 (FFLUC_HILL_SLOPE 12.7, FFLUC_R_SQUARED 0.111, HEPG2TOX_HILL_SLOPE 2.05, HEPG2TOX_R_SQUARED 0.969, PBLUC_HILL_SLOPE 9.12, PBLUC_R_SQUARED 0.459, read-out: LUCIFERASE INFECTION ASSAY - IC50): 2.78 µM |
| COC(=O)c1sc(SC)c2c1CC(C)(C)C/C2=N\O | > 11 µM | > 11 µM | – |
| CCOc1cccc(/C=C/c2ccc3cccc(O)c3n2)c1O | 10.6 µM | – | IC50 (PBLUC_HILL_SLOPE 16.2, PBLUC_R_SQUARED 0.451, read-out: LUCIFERASE INFECTION ASSAY - IC50): 9.23 µM |
| Cc1cc(Cl)c(C)c(S(=O)(=O)Nc2ccccc2N2CCN(C)CC2)c1Cl | > 10 µM | – | IC50 (FFLUC_HILL_SLOPE 13.7, FFLUC_R_SQUARED 0.171, read-out: LUCIFERASE INFECTION ASSAY - IC50): > 10 µM |
| Cc1ccc2nc(NC(=O)c3ccc(Cl)cc3)c(C(=O)NC3CCCCC3)n2c1 | 6.42 µM | – | IC50 (PBLUC_HILL_SLOPE 3.64, PBLUC_R_SQUARED 0.503, read-out: LUCIFERASE INFECTION ASSAY - IC50): 3.51 µM |
| Cc1cc(C(=O)Cn2nnc3ccccc3c2=O)c(C)n1-c1ccccc1F | 3.8 µM | – | IC50 (PBLUC_HILL_SLOPE 0.371, 0.679, PBLUC_R_SQUARED 0.784, 0.965, read-out: LUCIFERASE INFECTION ASSAY - IC50): 0.126 µM |
| O=C(CN(Cc1ccco1)S(=O)(=O)c1ccccc1F)Nc1ccc(SC(F)F)cc1 | > 10 µM | – | IC50 (PBLUC_HILL_SLOPE 1.6, PBLUC_R_SQUARED 0.718, read-out: LUCIFERASE INFECTION ASSAY - IC50): 3.47 µM |
| O=C1/C(=N\O)c2ccccc2N1Cc1cc(C(F)(F)F)cc(C(F)(F)F)c1 | 2.62 µM | – | IC50 (HEPG2TOX_HILL_SLOPE 1.63, HEPG2TOX_R_SQUARED 0.96, PBLUC_HILL_SLOPE 1.81, PBLUC_R_SQUARED 0.672, read-out: LUCIFERASE INFECTION ASSAY - IC50): 0.78 µM |
| COc1ccc(/C(C)=N/OCC(=O)O)cc1 | > 14.8 µM | – | IC50 (PBLUC_HILL_SLOPE 3.66, PBLUC_R_SQUARED 0.112, read-out: LUCIFERASE INFECTION ASSAY - IC50): > 14.8 µM |
| Cc1cc(C)c2c(C)c(C(=O)Nc3cc(S(=O)(=O)N4CCCCC4)ccc3N(C)C)sc2n1 | > 10 µM | 6.67 µM | – |
| CCN1C(=O)N(CC(N)=O)C(=O)C12CCN(Cc1ccc(N(C)c3ccccc3)cc1)CC2 | > 7.34 µM | – | IC50 (HEPG2TOX_HILL_SLOPE 2.17, HEPG2TOX_R_SQUARED 0.96, PBLUC_HILL_SLOPE 2.1, PBLUC_R_SQUARED 0.458, read-out: LUCIFERASE INFECTION ASSAY - IC50): 3.27 µM |
| COc1cc(CNCCCN(C)C)cc(Cl)c1OCc1ccc(F)cc1 | > 8.66 µM | – | IC50 (HEPG2TOX_HILL_SLOPE 10.1, HEPG2TOX_R_SQUARED 0.531, PBLUC_HILL_SLOPE 2.5, PBLUC_R_SQUARED 0.598, read-out: LUCIFERASE INFECTION ASSAY - IC50): 5.14 µM |
| Fc1ccc(N2c3cc(F)ccc3N=C(c3ccccc3)C2c2ccccc2)cc1 (configuration not stated) | > 8.32 µM | – | IC50 (FFLUC_HILL_SLOPE 13.2, FFLUC_R_SQUARED 0.317, HEPG2TOX_HILL_SLOPE 1.35, HEPG2TOX_R_SQUARED 0.526, PBLUC_HILL_SLOPE 1.66, PBLUC_R_SQUARED 0.328, read-out: LUCIFERASE INFECTION ASSAY - IC50): 5.47 µM |
| CC1=C(C(=O)c2ccc(Cl)cc2)C(c2ccc(C(F)(F)F)cc2)NC(=O)N1 (configuration not stated) | > 10 µM | > 10 µM | – |
| Cc1sc2ncnc(Sc3nnc(-c4cccs4)n3-c3ccccc3)c2c1C | 3.96 µM | – | IC50 (PBLUC_HILL_SLOPE 13.8, PBLUC_R_SQUARED 0.706, read-out: LUCIFERASE INFECTION ASSAY - IC50): 3.37 µM |
| O=C(Cc1noc2ccccc12)Nc1ccc(C(=O)N2CCCC2)cc1 | > 10 µM | > 10 µM | – |
| CN(C)c1cccc(-c2ccc3nnc(-c4cscn4)n3c2)c1 | > 10 µM | > 10 µM | – |
| O=C1/C(=C\c2ccncc2)C(c2ccccc2)Oc2ccccc21 (configuration not stated) | 9.96 µM | 9.06 µM | – |
| CC1(C(=O)NCc2ccco2)Cc2c(-c3ccccc3)ccnc2O1 (configuration not stated) | 3.99 µM | – | IC50 (HEPG2TOX_HILL_SLOPE 4.72, HEPG2TOX_R_SQUARED 0.753, PBLUC_HILL_SLOPE 10.4, PBLUC_R_SQUARED 0.157, read-out: LUCIFERASE INFECTION ASSAY - IC50): 3.23 µM |
| O=C(/C=C/c1cc([N+](=O)[O-])ccc1Cl)c1ccc(N2CCOCC2)c(F)c1 | > 10 µM | – | IC50 (HEPG2TOX_HILL_SLOPE 3.72, HEPG2TOX_R_SQUARED 0.763, PBLUC_HILL_SLOPE 12.8, PBLUC_R_SQUARED 0.291, read-out: LUCIFERASE INFECTION ASSAY - IC50): 8.87 µM |
| Cc1cc(/C=N/Nc2nncc3ccccc23)c(C)n1-c1ccc(I)cc1 | > 10 µM | – | IC50 (PBLUC_HILL_SLOPE 2.06, PBLUC_R_SQUARED 0.597, read-out: LUCIFERASE INFECTION ASSAY - IC50): 6.98 µM |
| CCCCCCCCCCCc1nnc(SCc2ccc(Cl)cc2)n1-c1ccccc1C(F)(F)F | > 6.3 µM | – | IC50 (FFLUC_HILL_SLOPE 9.94, FFLUC_R_SQUARED 0.653, read-out: LUCIFERASE INFECTION ASSAY - IC50): > 6.3 µM |

| Compound | IC90 | IC50 [1] | further results |
| --- | --- | --- | --- |
| Cc1cccc(C)c1NC(=O)CSc1nc(=O)c2c(C)c(-c3ccccc3)sc2[nH]1 | > 10 µM | > 10 µM | – |
| Cc1cc(-c2cn3c(-c4ccncc4)cnc3cn2)cc(C)c1O | 10 µM | – | IC50 (PBLUC_HILL_SLOPE 18.9, PBLUC_R_SQUARED 0.365, read-out: LUCIFERASE INFECTION ASSAY - IC50): 8.93 µM |
| O=C(Nc1ccc2c(c1)OCO2)C1CCN(Cn2nc3n(c2=O)CCCCC3)CC1 | > 10 µM | > 10 µM | – |
| CC(Sc1ncnc2sc(-c3ccccc3)cc12)C(=O)N1CCNC1=O (configuration not stated) | > 10 µM | – | IC50 (PBLUC_HILL_SLOPE 3.73, PBLUC_R_SQUARED 0.46, read-out: LUCIFERASE INFECTION ASSAY - IC50): 5.98 µM |
| CCN(C(=O)COc1ccc(-c2ccccc2)cc1)c1cccc2ccccc12 | > 10 µM | > 10 µM | – |
| c1cc[n+](Cc2ccc(-c3nc4ccccc4s3)cc2)cc1 | 7.9 µM | – | IC50 (PBLUC_HILL_SLOPE 1.53, PBLUC_R_SQUARED 0.36, read-out: LUCIFERASE INFECTION ASSAY - IC50): 1.88 µM |
| COC(=O)c1c(NC(=O)c2ccco2)c2cc(NC(C)Cc3ccccc3F)cnc2n1C (configuration not stated) | > 7.33 µM | – | IC50 (HEPG2TOX_HILL_SLOPE 10.3, HEPG2TOX_R_SQUARED 0.591, PBLUC_HILL_SLOPE 7.35, PBLUC_R_SQUARED 0.509, read-out: LUCIFERASE INFECTION ASSAY - IC50): 6.19 µM |
| O=C(CNc1ccccc1-c1ccccc1)NCC(F)(F)F | > 10 µM | > 10 µM | – |
| O=C(Cn1cc(I)c(=O)c(I)c1)OCC(=O)N1CCCc2ccccc21 | > 10 µM | > 10 µM | – |
| OC(c1cc(F)c(F)c(F)c1)c1nnc(Nc2ccc(F)c(Cl)c2)s1 (configuration not stated) | > 10 µM | – | IC50 (FFLUC_HILL_SLOPE 0.27, FFLUC_R_SQUARED 0.307, PBLUC_HILL_SLOPE 3.7, PBLUC_R_SQUARED 0.113, read-out: LUCIFERASE INFECTION ASSAY - IC50): 8.96 µM |
| O=C(Nc1ccccc1O)c1ccc(Cn2ccnc2)cc1 | 6.19 µM | – | IC50 (PBLUC_HILL_SLOPE 1.6, PBLUC_R_SQUARED 0.598, read-out: LUCIFERASE INFECTION ASSAY - IC50): 1.57 µM |
| O=[N+]([O-])c1ccc(NC2CCN(Cc3ccccc3)CC2)c2ccncc12 | > 10 µM | 9.37 µM | – |
| CC(C)(C)c1cc(NC(=O)CN2CCN(CCOc3ccccc3)CC2)n(-c2ccccc2)n1 | > 10 µM | – | IC50 (PBLUC_HILL_SLOPE 3.74, PBLUC_R_SQUARED 0.753, read-out: LUCIFERASE INFECTION ASSAY - IC50): 6.22 µM |
| CSc1sc(-c2ccnc(SCc3cccc(F)c3)n2)c2c1C(=O)CCC2 | > 7.92 µM | > 7.92 µM | – |
| Cc1ccc(N2C(=O)/C(=C\Nc3cc(Cl)ccc3[N+](=O)[O-])c3ccccc3C2=O)c(C)c1 | > 10 µM | – | IC50 (FFLUC_HILL_SLOPE 12.2, FFLUC_R_SQUARED 0.8, read-out: LUCIFERASE INFECTION ASSAY - IC50): > 10 µM |
| CC(C)(C)c1ccc(C(O)c2nc(C(=O)NC3CC3)cs2)cc1 (configuration not stated) | 1.29 µM | – | IC50 (HEPG2TOX_HILL_SLOPE 1.09, HEPG2TOX_R_SQUARED 0.894, PBLUC_HILL_SLOPE 10.5, PBLUC_R_SQUARED 0.569, read-out: LUCIFERASE INFECTION ASSAY - IC50): 1.05 µM |
| O=C(OCC(=O)N(CCc1ccccc1)Cc1ccccc1)c1ccccc1NCCO | > 10 µM | > 10 µM | – |
| COc1ccnc(Nc2ccc3c(c2)nc2n3CCCCC2)n1 | 2.84 µM | – | IC50 (FFLUC_HILL_SLOPE 0.925, FFLUC_R_SQUARED 0.902, HEPG2TOX_HILL_SLOPE 18.6, HEPG2TOX_R_SQUARED 0.895, PBLUC_HILL_SLOPE 0.753, PBLUC_R_SQUARED 0.781, read-out: LUCIFERASE INFECTION ASSAY - IC50): 0.154 µM |
| O=C(NC1CC1)c1ccc(-c2cnc3c(NCc4cccs4)nccn23)cc1 | 3.14 µM | – | – |
| COc1ccc(C2CC(=O)c3cnn(-c4nc(C)cc(C)n4)c3C2)cc1 (configuration not stated) | 4.91 µM | – | IC50 (PBLUC_HILL_SLOPE 4.21, PBLUC_R_SQUARED 0.368, read-out: LUCIFERASE INFECTION ASSAY - IC50): 2.91 µM |
| Cn1c(-c2ccccc2)c(C(Nc2ccccn2)c2ccccc2O)c2ccccc21 (configuration not stated) | > 10 µM | – | IC50 (FFLUC_HILL_SLOPE 22.7, FFLUC_R_SQUARED 0.0514, read-out: LUCIFERASE INFECTION ASSAY - IC50): > 10 µM |
| CN(C)CCNc1ccnc2c(-c3ccccc3F)cnn12 | 1.46 µM | – | IC50 (FFLUC_HILL_SLOPE 9.41, FFLUC_R_SQUARED 0.56, PBLUC_HILL_SLOPE 1.12, PBLUC_R_SQUARED 0.894, read-out: LUCIFERASE INFECTION ASSAY - IC50): 0.204 µM |
